Reference: paper PMC11743413 (Bioresources and Bioprocessing, 2025)

Biological target: T1, SerE (Corynebacterium glutamicum, UniProt Q8NSR3)
T1 construct: gene Cgl0605
Details: L-proline released from Pro-Gly in the cells; acid-ninhydrin assay

T1 sequence (Q8NSR3 1-307): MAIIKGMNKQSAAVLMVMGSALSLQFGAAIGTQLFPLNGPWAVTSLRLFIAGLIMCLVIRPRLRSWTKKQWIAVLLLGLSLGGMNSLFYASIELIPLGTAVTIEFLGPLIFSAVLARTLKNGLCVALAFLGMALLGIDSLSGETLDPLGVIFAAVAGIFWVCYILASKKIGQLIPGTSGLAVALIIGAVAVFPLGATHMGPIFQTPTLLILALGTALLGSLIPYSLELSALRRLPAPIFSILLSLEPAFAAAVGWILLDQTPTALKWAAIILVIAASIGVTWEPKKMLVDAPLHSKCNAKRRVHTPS

O=C(O)[C@@H]1CCCN1 [L-proline]
amino acid export assay after Pro-Gly dipeptide addition; serE deletion versus o: SerE is indeed as an L-proline exporter
